Common to all, as to format: in vivo
The subject of assay [1] is Tetranychus urticae (spider mites - adult). The assay can be described thus: insecticidal mortality test, contact, French bean leaf. The note with it: 72 h, 3 days, read-out: grading of mortality, TU. Here is the method: (§1) The activity of the Product was determined using variety of insect pests. The Product was used in the form of liquid preparations containing 500 , 100 or 10 parts per million (ppm) by weight of the Product. The preparations were made by dissolving the Product in acetone and diluting the solutions with water containing b 0.01% by weight of a wetting agent sold under the trade name "LISSAPOL" NX until the liquid preparations contained the required concentration of the Product. "Lissapol" is a Registered Trade Mark.
(§2) The test procedure adopted with regard to each pest was basically the same and comprised supporting a number of the pests on a medium which was usually a host plant or a foodstuff on which the pests feed, and treating either or both the pests and the medium with the preparations. The mortality of the pests was then assessed at peroods usually varying from one to three days after the treatment.
(§3) The results of the tests are given in Table IV for each of the Products, at the rate in parts per million given in the second column, as a grading of mortality designated as A, B or C wherein A indicates 80-100% mortality or knockdown, B indicates 50-79% mortality or knockdown and C indicates less than 50% mortality or knockdown.
(§4) In Table IV the pest organism used is designated by a letter code and the pest species, the support medium or food, and the type and duration of test is given in Table III.

In assay [2] the test system is Myzus persicae (aphids). Put plainly: insecticidal mortality test, contact, Chinese cabbage leaf. The note with it: 72 h, 3 days, read-out: grading of mortality, MP. How it is done:
as §1, §2, §3, §4

Assay [3] has as its system Nephotettix cincticeps (green leaf hopper - nymphs). Put plainly: insecticidal mortality test, contact, rice plant. The note with it: 72 h, 3 days, read-out: grading of mortality, NC. Here is the method:
as §1, §2, §3, §4
NC Nephotettix cincticeps

The test system of assay [4] is Heliothis virescens (tobacco budworm - larvae). Put plainly: whole plant or invertebrate. The following applies: in Gossypium hirsutum, 72 h, read-out: grading of mortality, HV. How it is done:
as §1, §2, §3, §4
(tobacco budworm - larvae)

In assay [5] the test system is Diabrotica balteata (rootworm larvae). The assay can be described thus: insecticidal mortality test, residual, filter paper/maize seed. The note with it: 72 h, 3 days, read-out: grading of mortality, DB. How it is done:
as §1, §2, §3, §4

Assay [6] has as its system Blattella germanica (cockroach nymphs). Put plainly: insecticidal mortality test, residual, plastic pot. The note with it: 72 h, 3 days, read-out: grading of mortality, BG. Here is the method: as §1, §2, §3, §4
Assay [7] has as its system Musca domestica (houseflies - adults). Put plainly: insecticidal mortality test, contact, cotton wool/sugar. The following applies: 24 h, 1 day, read-out: grading of mortality, MD. Here is the method:
as §1, §2, §3, §4

The test system is the same in assay [8]. Put plainly: knockdown test, cotton wool/sugar. The following applies: 4 hours, read-out: grading of knockdown, MD/KD. Here is the method: as §1, §2
In the case of the species Musca domestica (housefly), additional tests to determine the knockdown effect of the compounds were performed.
as §3, §4

In assay [9] the test system is Spodoptera exigua (lesser army worm - larvae). Put plainly: insecticidal mortality test, residual, cotton leaf. The following applies: 72 h, 3 days, read-out: grading of mortality, SP. Here is the method:
as §1, §2, §3, §4
(lesser army worm - larvae)

The subject of assay [10] is Niloparvata lugens (brown plant hopper - nymphs). Put plainly: insecticidal mortality test, contact, rice plant. The following applies: 72 h, 3 days, read-out: grading of mortality, NL. Here is the method:
as §1, §2
The results of the tests are given in Table IV for each of the Products, at the rate in parts per million given in the second column, as a grading of mortality designated as A, B or C wherein A indicates 80-100% mortality or knockdown, B indicates 50-79% mortality or knockdown and C indicates less than 50% mortality or knockdown. […]

Where only a bound is given, the exact number is not on record here.

One may read the mortality as the percentage killed. Turning to `CCC(C)(COCc1cccc(Oc2ccccc2)c1)C(F)F` (racemic) [Compound 3, (RS)-1,1-Difluoro-2-ethyl-2-methyl-3(3-phenoxybenzyloxy)propane], the mortality at 500 ppm is under 50% in assay [1]; under 50% in assay [2]; under 50% in assay [3]; under 50% in assay [4]; 80 to 100% in assay [5]; under 50% in assay [6]. Also, the mortality at 500 ppm in assay [7] is 50 to 79%; in assay [9] it was 80 to 100%. For the same compound, the pest or weed control at 500 ppm in assay [8] lay within 50 to 79%.
Regarding `CC(C)(COCc1ccc(F)c(Oc2ccccc2)c1)C(F)F` [Compound 1, 1,1-difluoro-2,2-dimethyl-3-(4-fluoro-3-phenoxybenzyloxy)propane], the mortality at 500 ppm is under 50% in assay [1]; under 50% in [2]; 80 to 100% in assay [10]; 80 to 100% in [4]; 80 to 100% in assay [5]; 80 to 100% in assay [6]. Besides, the mortality at 500 ppm in [7] and in assay [9] was 80 to 100% each time. Moreover, the pest or weed control at 500 ppm in [8] fell in the range of 80 to 100%.
Turning to `CC(C)(COCc1cccc(Oc2ccccc2)c1)C(F)F` [Compound 2, 1,1-Difluoro-2,2-dimethyl-3-(3-phenoxybenzyloxy)propane], the mortality at 500 ppm in [1] was under 50%; in assay [2] it was under 50%; in assay [3] it was 80 to 100%; in [4], under 50%; in assay [5] it was 80 to 100%; in assay [6], 80 to 100%. Further, the mortality at 500 ppm in [7] was 80 to 100%; in assay [9], under 50%. Besides, in assay [8], the pest or weed control at 500 ppm lay within 80 to 100%.
`CC(C)(COCc1ccc(F)c(Cc2ccccc2)c1)C(F)F` [Compound 4, 1,1-Difluoro-2,2-dimethyl-3-(4-fluoro-3-benzylbenzyloxy)propane]: the mortality at 500 ppm in assay [1] was under 50%; in [2], under 50%; in assay [4], under 50%; in assay [5] it was 80 to 100%; in [6], 50 to 79%; in [7], 80 to 100%. Besides, the mortality at 500 ppm in [9] is 50 to 79%. The pest or weed control at 500 ppm in [8] is under 50%.
In the case of `CC(C)(COCc1cccc(Oc2ccccc2)n1)C(F)F` [Compound 5, 1,1-Difluoro-2,2-dimethyl-3-[(6-phenoxypyrid-2-yl)methyloxy]propane], the mortality at 500 ppm in assay [1] is 80 to 100%; in assay [2], 50 to 79%; in [10] it was 80 to 100%; in assay [4], under 50%; in [5], 80 to 100%; in [6], 80 to 100%. The mortality at 500 ppm in assay [7] and in assay [9] was 80 to 100% in each case. Further, the pest or weed control at 500 ppm in assay [8] fell in the range of 80 to 100%.
`CC(C)(COCc1ccc(F)c(Nc2ccccc2)c1)C(F)F` [Compound 6, 1,1-Difluoro-2,2-dimethyl-3-(3-phenylamino-4-fluorobenzyloxy)propane]: the mortality at 500 ppm in assay [1] is 80 to 100%; in [2], 80 to 100%; in assay [3] it was 80 to 100%; in assay [4] it was 80 to 100%; in assay [5] it was 80 to 100%; in assay [7], under 50%. Moreover, the mortality at 500 ppm in [9] fell in the range of 80 to 100%. The pest or weed control at 500 ppm in [8] was in the range of 50 to 79%.
On to `CC(C)(CF)COCc1ccc(F)c(Oc2ccccc2)c1` [Compound 7, 1-Fluoro-2,2-dimethyl-3-(4-fluoro-3-phenoxybenzyloxy)propane], for which the mortality at 500 ppm is under 50% in assay [1]; under 50% in assay [2]; 80 to 100% in assay [3]; 80 to 100% in assay [4]; 80 to 100% in assay [5]; 80 to 100% in [6]. Further, the mortality at 500 ppm in [7] and in assay [9] was 80 to 100% in each case. Besides, the pest or weed control at 500 ppm in assay [8] lay in the range of 80 to 100%.
As to `CC(C)(CF)COCc1cccc(Oc2ccccc2)c1` [Compound 8, 1-fluoro-2,2-dimethyl-3-(3-phenoxybenzyloxy)propane], the mortality at 500 ppm is under 50% in assay [1]; under 50% in [2]; 80 to 100% in [3]; 50 to 79% in assay [4]; 80 to 100% in [5]; under 50% in assay [6]. For the same compound, the figures for the mortality at 500 ppm in assay [7] and in assay [9] were 50 to 79% and 80 to 100%, respectively. Also, the pest or weed control at 500 ppm in [8] is under 50%.
Consider `Fc1ccc(COCC2(C(F)F)CCCC2)cc1Oc1ccccc1` [Compound 21, 1-Difluoromethyl-l-(4-fluoro-3-phenoxybenzyloxymethyl)cyclopentane], for which the mortality at 500 ppm in assay [1] was under 50%; in assay [2] it was under 50%; in assay [3] it was 80 to 100%; in [4], 50 to 79%; in assay [5], 80 to 100%; in assay [7], under 50%. The mortality at 500 ppm in assay [9] was under 50%. The pest or weed control at 500 ppm in assay [8] was under 50%.

The values are drawn from patent US4792563A, “Insecticidal ethers” (Imperial Chemical Industries PLC, priority 1986, dated 1988).
